This is an account of results in patent US8202998B2, “Salts of benzimidazolyl pyridyl ethers and formulations thereof” (Novartis AG, priority 2006, dated 2012).

A short description of this data set: Aqueous solubility of salts in deionized water.
Setting [1] is: deionized water, water, thermodynamic from solid.

Turning to `Cl.Cn1c(Nc2ccc(C(F)(F)F)cc2)nc2cc(Oc3ccnc(-c4ncc(C(F)(F)F)[nH]4)c3)ccc21` [Hydrochloride, {1-methyl-5-[2-(5-trifluoromethyl-1H-imidazol-2-yl)-pyridin-4-yloxy]-1H-benzoimidazol-2-yl}-(4-trifluoromethyl-phenyl)amine hydrochloride], under setting [1], the solubility stood at 10 µg/mL and the solubility at 48 h amounted to 457 µg/mL. The pH (pH of the saturated aqueous solutions) is on record as 2.079.

For orientation: solubility means how much of the substance goes into solution per volume.
